Laboratory results taken from patent US20060069132A1, “Azolecarboxamide herbicides” (priority 2004, published 2006).

Tests used:
barnyardgrass [1] = experiment: Test B flooded paddy test; type: in vivo, Echinochloa crus-galli; conditions: 1000 g ai/ha, visual rating, scale 0 to 100 (0 no effect, 100 complete control), 13 to 15 days
Outline: (§1)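 Treated at 2-leaf (paddy) or 1–4-leaf, 2–18 cm (postemergence); greenhouse 13–15 d; visual score vs control, 0 none to 100 complete control; dash = not tested.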

morningglory = experiment: Test B pre-/postemergence herbicide test; type: in vivo, Ipomoea coccinea; conditions: for Plant response rating, Morningglory: preemergence; for Morningglory plant response rating: postemergence, visual rating, scale 0 (no effect) to 100 (complete control)
Outline: (§2)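 Herbicidal effect was judged by eye on a 0–100 scale after plants stood 13 to 15 days in the greenhouse following pre- or postemergence treatment with surfactant-containing formulations.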

Surinam grass = experiment: Test B pre-/postemergence herbicide test; type: in vivo, Urochloa decumbens; conditions: for Plant response rating, Surinam Grass: preemergence; for Surinam Grass plant response rating: postemergence, visual rating, scale 0 (no effect) to 100 (complete control)
Outline: (§3)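 Response was scored visually 13 to 15 days after treatment against untreated greenhouse controls, 0 meaning no effect and 100 complete control. Formulations (solvent mixture plus surfactant) went onto soil after planting, onto foliage of 1- to 4-leaf plants, and onto 2-leaf plants in a flooded paddy set including rice and barnyardgrass.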

large crabgrass = experiment: Test B pre-/postemergence herbicide test; type: in vivo, Digitaria sanguinalis; conditions: for Plant response rating, Crabgrass, Large: preemergence; for Crabgrass, Large plant response rating: postemergence, visual rating, scale 0 (no effect) to 100 (complete control)
Outline: as §3

blackgrass = experiment: Test B postemergence herbicide test; type: in vivo, Alopecurus myosuroides; conditions: postemergence, visual rating, scale 0 (no effect) to 100 (complete control)
Outline: as §1

velvetleaf = experiment: Test B pre-/postemergence herbicide test; type: in vivo, Abutilon theophrasti; conditions: for Plant response rating, Velvetleaf: preemergence; for Velvetleaf plant response rating: postemergence, visual rating, scale 0 (no effect) to 100 (complete control)
Outline: as §3

barnyardgrass [2] = experiment: Test C flooded paddy test; type: in vivo, Echinochloa crus-galli
Outline: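 Weeds and wheat were sprayed after emergence, at a height of 2 to 18 cm (1–4 leaves), and paddy barnyardgrass was flooded and treated at two leaves. Assessment took place 12–14 days later in the greenhouse on a 0-to-100 visual control scale. A dash means no result was obtained.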

[3] = tested on: small flower umbrella sedge; experiment: Test B flooded paddy test; type: in vivo, Cyperus difformis; conditions: 1000 g ai/ha, visual rating, scale 0 to 100 (0 no effect, 100 complete control), 13 to 15 days
Outline: as §1

cocklebur = experiment: Test B pre-/postemergence herbicide test; type: in vivo, Xanthium strumarium; conditions: for Plant response rating, Cocklebur: preemergence; for Cocklebur plant response rating: postemergence, visual rating, scale 0 (no effect) to 100 (complete control)
Outline: as §2

ducksalad [4] = experiment: Test C flooded paddy test; type: in vivo, Heteranthera limosa
rice [5] = experiment: Test B pre-/postemergence herbicide test; type: in vivo, Oryza sativa; conditions: preemergence
Outline: as §3

lambsquarters = experiment: Test B pre-/postemergence herbicide test; type: in vivo, Chenopodium album; conditions: for Plant response rating, Lambsquarters: preemergence; for Lambsquarters plant response rating: postemergence, visual rating, scale 0 (no effect) to 100 (complete control)
Outline: as §3

wheat = experiment: Test B postemergence herbicide test; type: in vivo, Triticum aestivum; set-up: key to Wheat plant response rating: 0 = no effect, 100 = complete control; conditions: postemergence, 500 g ai/ha; visual rating, scale 0 (no effect) to 100 (complete control)
Outline: (§4)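 After treating 2-leaf paddy plants or 2–18 cm postemergence plants (1 to 4 leaves) with formulated chemical, researchers kept them in a greenhouse for 13–15 days. Effects were judged visually versus controls: 0 indicates none, 100 total control.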

corn = experiment: Test B pre-/postemergence herbicide test; type: in vivo, Zea mays; conditions: for Plant response rating, Corn: preemergence; for Corn plant response rating: postemergence, visual rating, scale 0 (no effect) to 100 (complete control)
Outline: as §3

giant foxtail = experiment: Test B pre-/postemergence herbicide test; type: in vivo, Setaria faberi; conditions: for Plant response rating, Foxtail, Giant: preemergence; for Foxtail, Giant plant response rating: postemergence, visual rating, scale 0 (no effect) to 100 (complete control)
Outline: as §3

pigweed = experiment: Test B pre-/postemergence herbicide test; type: in vivo, Amaranthus retroflexus; conditions: for Plant response rating, Pigweed: preemergence; for Pigweed plant response rating: postemergence, visual rating, scale 0 (no effect) to 100 (complete control)
Outline: as §3

barnyardgrass [6] = experiment: Test B pre-/postemergence herbicide test; type: in vivo, Echinochloa crus-galli; conditions: for Plant response rating, Barnyardgrass: preemergence; for Barnyardgrass plant response rating: postemergence, visual rating, scale 0 (no effect) to 100 (complete control)
Outline: as §2

ducksalad [7] = experiment: Test B flooded paddy test; type: in vivo, Heteranthera limosa; conditions: 1000 g ai/ha, visual rating, scale 0 to 100 (0 no effect, 100 complete control), 13 to 15 days
Outline: as §1

[8] = tested on: smallflower umbrella sedge; experiment: Test C flooded paddy test; type: in vivo, Cyperus difformis
rice [9] = experiment: Test B flooded paddy test; type: in vivo, Oryza sativa; conditions: 1000 g ai/ha, visual rating, scale 0 to 100 (0 no effect, 100 complete control), 13 to 15 days
Outline: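 Postemergence plants were sprayed with formulated test chemicals at 2 to 18 cm height (1- to 4-leaf stage); paddy species were grown to the 2-leaf stage. After 13 to 15 days in a greenhouse, injury was rated visually against untreated controls on a 0–100 scale (0 = no effect, 100 = complete control).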

wild oat = experiment: Test B postemergence herbicide test; type: in vivo, Avena fatua; conditions: postemergence, visual rating, scale 0 (no effect) to 100 (complete control)
Outline: as §4

rice [10] = experiment: Test C flooded paddy test; type: in vivo, Oryza sativa
Outline: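 Plants were grown to the 1- to 4-leaf stage (2–18 cm) and then treated postemergence, or grown to the 2-leaf stage for the flooded paddy test. They were held in a greenhouse for 12 to 14 days and then scored by eye against controls, where 0 is no effect and 100 is complete control.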

[11] = 500 g ai/ha, visual rating 0-100, 0 no effect, 100 complete control
[12] = 125 g ai/ha, 0 to 100 scale, 0 is no effect, 100 is complete control
[13] = 62 g ai/ha, scale 0 to 100 (0 no effect, 100 complete control)
[14] = 250 g ai/ha, scale of 0 to 100, 0 is no effect, 100 is complete control
[15] = 500 g ai/ha, visual rating after 12 to 14 days, scale 0 to 100 (0 no effect, 100 complete control)
[16] = 125 g ai/ha, scale 0 to 100 (0 no effect, 100 complete control)

Compound: CCn1nc(C(C)(C)C)cc1C(=O)Nc1cc(C(=O)NCCOC)ccn1 [Compound 161]
- Barnyardgrass plant response rating (barnyardgrass [1]): 80
- Plant response rating, Morningglory (morningglory; [11]): 40
- Morningglory plant response rating (morningglory; 125 g ai/ha): 20
- Morningglory plant response rating (morningglory; 500 g ai/ha): 20
- Plant response rating, Morningglory (morningglory; [12]): 10
- Plant response rating, Surinam Grass (Surinam grass; [11]): 60
- Surinam Grass plant response rating (Surinam grass; 125 g ai/ha): 20
- Surinam Grass plant response rating (Surinam grass; 500 g ai/ha): 20
- Plant response rating, Surinam Grass (Surinam grass; [12]): 10
- Plant response rating, Crabgrass, Large (large crabgrass; [11]): 100
- Crabgrass, Large plant response rating (large crabgrass; 125 g ai/ha): 0
- Crabgrass, Large plant response rating (large crabgrass; 500 g ai/ha): 10
- Plant response rating, Crabgrass, Large (large crabgrass; [12]): 80
- Blackgrass plant response rating (blackgrass; 125 g ai/ha): 40
- Blackgrass plant response rating (blackgrass; 500 g ai/ha): 40
- Plant response rating, Velvetleaf (velvetleaf; [11]): 70
- Velvetleaf plant response rating (velvetleaf; 125 g ai/ha): 20
- Velvetleaf plant response rating (velvetleaf; 500 g ai/ha): 50
- Plant response rating, Velvetleaf (velvetleaf; [12]): 20
- Barnyardgrass plant response rating (barnyardgrass [2]; [13]): 0
- Barnyardgrass plant response rating (barnyardgrass [2]; 125 g ai/ha, scale of 0 to 100, 0 is no effect, 100 is complete control): 0
- Barnyardgrass plant response rating (barnyardgrass [2]; [14]): 30
- Plant response rating, Barnyardgrass (barnyardgrass [2]; [15]): 75
- Sedge, Umbrella plant response rating [3]: 60
- Plant response rating, Cocklebur (cocklebur; [11]): 0
- Cocklebur plant response rating (cocklebur; 125 g ai/ha): 20
- Cocklebur plant response rating (cocklebur; 500 g ai/ha): 30
- Plant response rating, Cocklebur (cocklebur; [12]): 0
- Ducksalad plant response rating (ducksalad [4]; [13]): 30
- Ducksalad plant response rating (ducksalad [4]; [16]): 65
- Ducksalad plant response rating (ducksalad [4]; [14]): 80
- Plant response rating, Ducksalad (ducksalad [4]; [15]): 90
- Plant response rating, Rice (rice [5]; [11]): 40
- Plant response rating, Rice (rice [5]; [12]): 0
- Plant response rating, Lambsquarters (lambsquarters; [11]): 100
- Lambsquarters plant response rating (lambsquarters; 125 g ai/ha): 70
- Lambsquarters plant response rating (lambsquarters; 500 g ai/ha): 70
- Plant response rating, Lambsquarters (lambsquarters; [12]): 100
- Wheat plant response rating (wheat): 10
- Plant response rating, Corn (corn; [11]): 10
- Corn plant response rating (corn; 125 g ai/ha): 0
- Corn plant response rating (corn; 500 g ai/ha): 0
- Plant response rating, Corn (corn; [12]): 0
- Plant response rating, Foxtail, Giant (giant foxtail; [11]): 100
- Foxtail, Giant plant response rating (giant foxtail; 125 g ai/ha): 20
- Foxtail, Giant plant response rating (giant foxtail; 500 g ai/ha): 30
- Plant response rating, Foxtail, Giant (giant foxtail; [12]): 20
- Plant response rating, Pigweed (pigweed; [11]): 100
- Pigweed plant response rating (pigweed; 125 g ai/ha): 20
- Pigweed plant response rating (pigweed; 500 g ai/ha): 60
- Plant response rating, Pigweed (pigweed; [12]): 100
- Plant response rating, Barnyardgrass (barnyardgrass [6]; [11]): 100
- Barnyardgrass plant response rating (barnyardgrass [6]; 125 g ai/ha): 10
- Barnyardgrass plant response rating (barnyardgrass [6]; 500 g ai/ha): 10
- Plant response rating, Barnyardgrass (barnyardgrass [6]; [12]): 50
- Ducksalad plant response rating (ducksalad [7]): 80
- Sedge, Umbrella plant response rating [8, 13]: 0
- Sedge, Umbrella plant response rating [8, 16]: 0
- Sedge, Umbrella plant response rating [8, 14]: 25
- Plant response rating, Sedge, Umbrella [8, 15]: 40
- Rice plant response rating (rice [9]): 40
- Oat, Wild plant response rating (wild oat; 125 g ai/ha): 30
- Oat, Wild plant response rating (wild oat; 500 g ai/ha): 40
- Rice plant response rating (rice [10]; [13]): 0
- Rice plant response rating (rice [10]; [16]): 10
- Rice plant response rating (rice [10]; [14]): 60
- Plant response rating, Rice (rice [10]; [15]): 65
